According to the supplement of paper PMC8967900:
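Also: ALL cell lines in 384-well plates, five doses spanning 10,000-fold, each plate scaled between vehicle and 100 µmol/L benzalkonium chloride controls, sDSS an adapted area-under-curve metric.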

What follows are molecules tested on ALL-PO (assay: selective drug sensitivity score (sDSS, relative to normal bone marrow) (sDSS (score)); higher = more potent and effective on the cell line relative to normal bone marrow cells). Conditions: 72 h.
`C[C@H]1C[C@@H]2[C@H]([C@@H](O)C[C@@]3(C)[C@H]2CC[C@]3(O)C(=O)CO)[C@@]2(C)C=CC(=O)C=C12` [Methylprednisolone] (top concentration 10000 nM) was tested, and the “selective drug sensitivity score” value was 34.1. With `FC(F)(F)c1ccc(/C=C/c2nc(COc3ccc(CCCCn4ccnn4)cc3)co2)cc1` [Mubritinib] (top concentration 1000 nM) the “selective drug sensitivity score” value was 6.16. `COc1cc2c(cc1OC(C)C)[C@H](c1ccc(Cl)cc1)N(c1ccc(N(C)C[C@H]3CC[C@H](N4CCN(C)C(=O)C4)CC3)cc1)C(=O)C2` [NVP-CGM097] (top concentration 25000 nM) was tested, and the “selective drug sensitivity score” value was -3.84. In the case of `CCOc1cc2ncc(C#N)c(Nc3ccc(OCc4ccccn4)c(Cl)c3)c2cc1NC(=O)/C=C/CN(C)C` [Neratinib] (top concentration 1000 nM), the “selective drug sensitivity score” value is reported as 5.28. In the case of `COc1ncc(-c2ccc3nccc(-c4ccnnc4)c3c2)cc1NS(=O)(=O)c1ccc(F)cc1F` [Omipalisib] (top concentration 1000 nM), the “selective drug sensitivity score” value is reported as 21.9. `CN1CCN(c2cc(C(=O)Nc3ccc4c(c3)-c3c(c(C(N)=O)nn3-c3ccc(F)cc3)CC4)c(Cl)cn2)CC1` [PHA-408] (top concentration 10000 nM) was tested, and the “selective drug sensitivity score” value was 0.78. `OC[C@H]1O[C@@H](n2cnc3c2N=CNC[C@H]3O)C[C@@H]1O` [Pentostatin] (top concentration 10000 nM) was tested, and the “selective drug sensitivity score” value was -0.44. In the case of `CC(C)N(C[C@H]1O[C@@H](n2cnc3c(N)ncnc32)[C@H](O)[C@@H]1O)[C@H]1C[C@@H](CCc2nc3cc(C(C)(C)C)ccc3[nH]2)C1` [Pinometostat] (top concentration 1000 nM), the “selective drug sensitivity score” value is reported as 0. In the case of `Cc1ccc(=O)n(-c2ccccc2)c1` [Pirfenidone] (top concentration 10000 nM), the “selective drug sensitivity score” value is reported as 0.

What follows are molecules tested on NALM-6 in the same assay as above. Conditions: 72 h.
`CC(=O)[C@]1(O)Cc2c(O)c3c(c(O)c2[C@@H](O[C@H]2C[C@H](N)[C@H](O)[C@H](C)O2)C1)C(=O)c1ccccc1C3=O` [Idarubicin] (top concentration 1000 nM) was tested, and the “selective drug sensitivity score” value was 7.94. In the case of `COc1cc2nccc(Oc3ccc(NC(=O)NC4CC4)c(Cl)c3)c2cc1C(N)=O` [Lenvatinib] (top concentration 2500 nM), the “selective drug sensitivity score” value is reported as -0.24. With `N#Cc1ccc(C(c2ccc(C#N)cc2)n2cncn2)cc1` [Letrozole] (top concentration 10000 nM) the “selective drug sensitivity score” value was -0.04. With `CCNCCS(=O)(=O)NC[C@@]1(c2ccccc2)SC(NC(=O)C(C)(C)C)=NN1C(=O)C(C)(C)C` [Litronesib] (top concentration 1000 nM) the “selective drug sensitivity score” value was 21.5. For `CC[C@H](C)C(=O)O[C@H]1C[C@@H](C)C=C2C=C[C@H](C)[C@H](CC[C@@H]3C[C@@H](O)CC(=O)O3)[C@H]21` [Lovastatin] (top concentration 10000 nM), the “selective drug sensitivity score” value was -0.1. `Cn1cc(-c2cnn3c(N)c(Br)c([C@@H]4CCCNC4)nc23)cn1` [MK-8776] (top concentration 2500 nM) was tested, and the “selective drug sensitivity score” value was -1.36. With `Cc1cnc(-c2ccccc2C(C)C)nc1NCc1ccc(-n2ccnn2)cc1` [ML323] (top concentration 10000 nM) the “selective drug sensitivity score” value was 1.84. `O=C(CCNC(=O)c1ccc(OC(F)(F)F)cc1)N[C@@H]1CCCc2ccccc21` [ML390] (top concentration 50000 nM) was tested, and the “selective drug sensitivity score” value was 10.8. `CN(C)C(=N)NC(=N)N` [Metformin] (top concentration 100000 nM) was tested, and the “selective drug sensitivity score” value was -0.02. In the case of `C[C@H]1C[C@@H]2[C@H]([C@@H](O)C[C@@]3(C)[C@H]2CC[C@]3(O)C(=O)CO)[C@@]2(C)C=CC(=O)C=C12` [Methylprednisolone] (top concentration 10000 nM), the “selective drug sensitivity score” value is reported as 22.4. In the case of `FC(F)(F)c1ccc(/C=C/c2nc(COc3ccc(CCCCn4ccnn4)cc3)co2)cc1` [Mubritinib] (top concentration 1000 nM), the “selective drug sensitivity score” value is reported as 12.1. For `COc1cc2c(cc1OC(C)C)[C@H](c1ccc(Cl)cc1)N(c1ccc(N(C)C[C@H]3CC[C@H](N4CCN(C)C(=O)C4)CC3)cc1)C(=O)C2` [NVP-CGM097] (top concentration 25000 nM), the “selective drug sensitivity score” value was 5.66. `CCOc1cc2ncc(C#N)c(Nc3ccc(OCc4ccccn4)c(Cl)c3)c2cc1NC(=O)/C=C/CN(C)C` [Neratinib] (top concentration 1000 nM) was tested, and the “selective drug sensitivity score” value was 0.48. With `COc1ncc(-c2ccc3nccc(-c4ccnnc4)c3c2)cc1NS(=O)(=O)c1ccc(F)cc1F` [Omipalisib] (top concentration 1000 nM) the “selective drug sensitivity score” value was 17.2. In the case of `CN1CCN(c2cc(C(=O)Nc3ccc4c(c3)-c3c(c(C(N)=O)nn3-c3ccc(F)cc3)CC4)c(Cl)cn2)CC1` [PHA-408] (top concentration 10000 nM), the “selective drug sensitivity score” value is reported as 0.78. With `OC[C@H]1O[C@@H](n2cnc3c2N=CNC[C@H]3O)C[C@@H]1O` [Pentostatin] (top concentration 10000 nM) the “selective drug sensitivity score” value was -0.44. For `CC(C)N(C[C@H]1O[C@@H](n2cnc3c(N)ncnc32)[C@H](O)[C@@H]1O)[C@H]1C[C@@H](CCc2nc3cc(C(C)(C)C)ccc3[nH]2)C1` [Pinometostat] (top concentration 1000 nM), the “selective drug sensitivity score” value was 0. `Cc1ccc(=O)n(-c2ccccc2)c1` [Pirfenidone] (top concentration 10000 nM) was tested, and the “selective drug sensitivity score” value was 0.

The molecules below were run on 380 in the same assay as above. Conditions: 72 h.
In the case of `CC(=O)[C@]1(O)Cc2c(O)c3c(c(O)c2[C@@H](O[C@H]2C[C@H](N)[C@H](O)[C@H](C)O2)C1)C(=O)c1ccccc1C3=O` [Idarubicin] (top concentration 1000 nM), the “selective drug sensitivity score” value is reported as 13.7. In the case of `COc1cc2nccc(Oc3ccc(NC(=O)NC4CC4)c(Cl)c3)c2cc1C(N)=O` [Lenvatinib] (top concentration 2500 nM), the “selective drug sensitivity score” value is reported as 0.06. `N#Cc1ccc(C(c2ccc(C#N)cc2)n2cncn2)cc1` [Letrozole] (top concentration 10000 nM) was tested, and the “selective drug sensitivity score” value was -0.04. For `CCNCCS(=O)(=O)NC[C@@]1(c2ccccc2)SC(NC(=O)C(C)(C)C)=NN1C(=O)C(C)(C)C` [Litronesib] (top concentration 1000 nM), the “selective drug sensitivity score” value was 19. `CC[C@H](C)C(=O)O[C@H]1C[C@@H](C)C=C2C=C[C@H](C)[C@H](CC[C@@H]3C[C@@H](O)CC(=O)O3)[C@H]21` [Lovastatin] (top concentration 10000 nM) was tested, and the “selective drug sensitivity score” value was 7.8. In the case of `Cn1cc(-c2cnn3c(N)c(Br)c([C@@H]4CCCNC4)nc23)cn1` [MK-8776] (top concentration 2500 nM), the “selective drug sensitivity score” value is reported as 3.64. For `Cc1cnc(-c2ccccc2C(C)C)nc1NCc1ccc(-n2ccnn2)cc1` [ML323] (top concentration 10000 nM), the “selective drug sensitivity score” value was -0.36. With `O=C(CCNC(=O)c1ccc(OC(F)(F)F)cc1)N[C@@H]1CCCc2ccccc21` [ML390] (top concentration 50000 nM) the “selective drug sensitivity score” value was 12.4. `CN(C)C(=N)NC(=N)N` [Metformin] (top concentration 100000 nM) was tested, and the “selective drug sensitivity score” value was -0.02. In the case of `C[C@H]1C[C@@H]2[C@H]([C@@H](O)C[C@@]3(C)[C@H]2CC[C@]3(O)C(=O)CO)[C@@]2(C)C=CC(=O)C=C12` [Methylprednisolone] (top concentration 10000 nM), the “selective drug sensitivity score” value is reported as 27.2. With `FC(F)(F)c1ccc(/C=C/c2nc(COc3ccc(CCCCn4ccnn4)cc3)co2)cc1` [Mubritinib] (top concentration 1000 nM) the “selective drug sensitivity score” value was 0.66. `COc1cc2c(cc1OC(C)C)[C@H](c1ccc(Cl)cc1)N(c1ccc(N(C)C[C@H]3CC[C@H](N4CCN(C)C(=O)C4)CC3)cc1)C(=O)C2` [NVP-CGM097] (top concentration 25000 nM) was tested, and the “selective drug sensitivity score” value was 11.4. With `CCOc1cc2ncc(C#N)c(Nc3ccc(OCc4ccccn4)c(Cl)c3)c2cc1NC(=O)/C=C/CN(C)C` [Neratinib] (top concentration 1000 nM) the “selective drug sensitivity score” value was 4.98. For `COc1ncc(-c2ccc3nccc(-c4ccnnc4)c3c2)cc1NS(=O)(=O)c1ccc(F)cc1F` [Omipalisib] (top concentration 1000 nM), the “selective drug sensitivity score” value was 22.2. With `CN1CCN(c2cc(C(=O)Nc3ccc4c(c3)-c3c(c(C(N)=O)nn3-c3ccc(F)cc3)CC4)c(Cl)cn2)CC1` [PHA-408] (top concentration 10000 nM) the “selective drug sensitivity score” value was 5.68. `OC[C@H]1O[C@@H](n2cnc3c2N=CNC[C@H]3O)C[C@@H]1O` [Pentostatin] (top concentration 10000 nM) was tested, and the “selective drug sensitivity score” value was -0.44. With `CC(C)N(C[C@H]1O[C@@H](n2cnc3c(N)ncnc32)[C@H](O)[C@@H]1O)[C@H]1C[C@@H](CCc2nc3cc(C(C)(C)C)ccc3[nH]2)C1` [Pinometostat] (top concentration 1000 nM) the “selective drug sensitivity score” value was 0. With `Cc1ccc(=O)n(-c2ccccc2)c1` [Pirfenidone] (top concentration 10000 nM) the “selective drug sensitivity score” value was 0.
